According to patent US20030153081A1, “Viral core protein-cationic lipid-nucleic acid-delivery complexes” (priority 1999, published 2003):

Assays:
[1] = tested on: plasmid DNA (pCMVβ); experiment: gel retardation assay (DNA binding analysis)
Method: One microgram of pCMVβ was incubated with 0 μg (lane 2), 5 μg (lane 3), 10 μg (lane 4), 15 μg (lane 5), 20 μg (lane 6), 25 μg (lane 7) and 30 μg (lane 8) of BSA for 10 minutes at room temperature in 1× HBS. Samples were then analyzed on a 1% agarose gel for altered mobility.
When ratios of 0.5 (w/w) or greater were used, however, migration of both forms of pDNA was severely retarded.
C). The Polyomavirus protein Vp1 was much less efficient at preventing pDNA migration. pCMVβ (1 μg) was incubated with 2 μg (lane 2), 4 μg (lane 3), 6 μg (lane 4), 8 μg (lane 5), 16 μg (lane 6), 32 μg (lane 7) and 0 μg (lane 8) Vp1. Only ratios of 6 or higher (protein: pDNA, w/w) caused significant retardation of supercoiled pDNA (lane 6, lower band). Also, not until a ratio of 32 (w/w) was used was there any effect on relaxed pDNA (lane 7, upper band). In all gels lane 1 corresponds to 1 Kb DNA marker (BRL).
The purified peptides were reconstituted in sterile distilled H2O at 3 mg/mL. Peptide and pDNA were complexed in 20 μL HEPES buffered saline (137 mM NaCl, 5 mM KCl, 0.75 mM Na2HPO4, 19 mM HEPES, pH 7.4) for 20 minutes at room temperature. Peptide: pDNA complexes were subsequently analyzed by agarose gel electrophoresis (1%). Control incubations for general macromolecular pDNA interactions were performed with varying amounts of molecular biology grade purified bovine serum albumin (Sigma).
Varying amounts of purified peptide were incubated at room temperature in HBS for approximately 10 minutes and then analyzed by agarose gel electrophoresis. Without the addition of peptide, supercoiled and relaxed circular plasmid DNA (pDNA) migrated in the expected manner (FIG. 1, lane 8).

[2] = tested on: ND7 cells; experiment: X-gal histochemistry cell counts, undifferentiated ND7 cells; type: cell-based, rat/mouse
Method: ND7 neurons were plated in 24 well culture dishes at a density of 4×10^4 cells/well and allowed to grow for 24 hrs. The undifferentiated ND7 neurons were then transfected with either pCMVb alone (A), pCMVb complexed with DC-Chol/DOPE (1/3, w/w) (B) or with pCMVb complexed with Mu1 and DC-Chol/DOPE (1/12/6) (C). Forty-eight hours later the cells were fixed and processed for histochemical detection of X-Gal.
DNA and liposomes were combined by the addition of 400 μL serum-free differentiation media and gentle shaking. The DNA: liposome mixture was incubated at room temperature for 20 to 30 minutes before being applied to the cells. The DNA/liposome mixture was then applied to the cells and incubated at 37° C., 5% CO2 for 2 hours after which this media was replaced with complete media Twenty four to 48 hours later the cells were fixed and processed for X-gal histochemistry as described ^31 or harvested for β-galactosidase enzyme assays (Promega Corp.).
Cell counts were performed under ×40 magnification using a Nikon Diaphot inverted microscope. Each transfection was repeated at least three times and at least three separate counts were made for each well.
The β-galactosidase reporter gene assay provides a measure of the overall level of β-galactosidase produced, but gives no information regarding the number of cells transfected. For this reason, we also performed cell counts on transfected ND7 cells. Cells were seeded at a density of 4×10^4 in 24 well culture plates. After 24 hours the cells were washed briefly in serum-free media and transfected with pCMVβ complexed to DC-Chol/DOPE and Mu1 peptide. The ratios used were those found to be optimal in the reporter gene assay, 1:12:6, pCMVβ:Mu1:DC-Chol/DOPE. Using these ratios, we found a 6-fold increase in the number of β galactosidase positive cells (FIGS. 3 & 6).

[3] = tested on: differentiated ND7 cells; experiment: X-gal histochemistry, transfection of differentiated ND7 cells; type: cell-based, rat/mouse
Method: ND7 cells were plated in a 24 well culture plate at a density of 4×10^4 cells per well in normal growth media (+serum). Twenty-four hours later the media was replaced with differentiation media and the cells were grown for an additional 24 hrs. Three different differentiation medias were used; serum-free (−serum), normal growth media plus 1 mM cAMP (cAMP), or reduced serum (0.5%) plus 1 mM cAMP and 50 ng/ml nerve growth factor (NGF). The cells were then transfected with pCMVb complexed with either DC-Chol/DOPE alone or Mu1 plus DC-Chol/DOPE. Forty-eight hours later the cells were fixed and processed for X-Gal histochemistry and the percentage of positive cells determined.
Differentiation of ND7 cells was carried out using three previously described methods ^28, 29. ND7 cells were seeded in NGM at a density of 4×10^4 cells per well in a 24 well culture dish (Nunc). Twenty four hours later the media was replaced with either: a) NGM supplemented with 1 mM adenosine 3′:5′-cyclic monophosphate (cAMP; Sigma), or b) serum-free differentiation media (50% Hams F12, 50% DMEM, 5 μg/mL Transterrin, 250 ng/mL Insulin, 0.3 μM sodium selenite), or c) low serum nerve growth factor (NGF) media (L-15 supplemented with 2 mM glutamine, 4 g/L glucose, 4 g/L sodium bicarbonate, 10 u/mL penicillin, […] streptomycin, 0.5% FCS, 1 mM cAMP, 50 ng/mL NGF (Alomone Labs)). Differentiated ND7 cells were grown in appropriate media for 24 hrs at 37° C., 5% CO2 prior to transfection.
We also examined the ability of Mu1 to improved cationic liposome-mediated transfection in differentiated ND7s. The ND7 cell line is derived from a fusion of primary rat dorsal root ganglia (DRG) neurons and the mouse neuroblastoma N18Tg2 ^28. ND7 cells can be differentiated in a variety of manners including the withdrawal of serum, cAMP administration or exposure to reduced serum plus cAMP and nerve growth factor. Differentiation of ND7s leads to the expression of cellular properties associated with their parental nociceptive sensory neurons including a reduction in cell division and the onset of neurite outgrowth. ND7 cells were seeded in 24 well culture plates and 24 hours later differentiated. Fifteen to 20 hours following the onset of differentiation, they were transfected as above. Fifteen to 20 hours following transfection, cells were fixed and processed for X-gal histochemistry. Consistent with previous observations, transfection efficiencies varied greatly between the three differentiated groups. […] In all three conditions, however, inclusion of Mu1 polypeptide in the transfection complex improved the transduction of differentiated ND7 cells. […] The greatest improvement in efficiencies was seen, however, in the group differentiated by serum withdrawal. Here, increases of greater than 10 fold were observed.

Substance: H-MRRAHHRRRRASHRRMRGG-OH [Mu1]
- ratio of protein to pDNA giving slight retardation of supercoiled pDNA, relaxed form not altered ([1]; 1 μg pCMVβ, 1% agarose gel): 0.25 w/w
- ratio of protein to pDNA at or above which migration of both forms of pDNA was severely retarded ([1]; 1 μg pCMVβ, 1x HBS, 1% agarose gel): ≥ 0.5 w/w
- concentration retarding electrophoretic mobility of plasmid DNA relative to Vp1 ([1]; Mu1 vs Vp1): 1/60
- concentration in solution, pDNA retardation ([1]; gel retardation complexes, 20 μL): 25 ng/mL
- number of X-Gal positive cells (FIG. 3) ([2]; 1/12/6 vs pCMVβ with DC-Chol/DOPE 1/3, 48 h): significantly enhanced the number of X-Gal positive cells
- increase in the number of β galactosidase positive cells ([2]; 1:12:6 pCMVβ:Mu1:DC-Chol/DOPE): 6 fold
- cell loss ([2]; Mu1 complex, any of the concentrations utilized): No obvious cell loss
- number of positive cells (FIG. 6) ([3]; all three differentiation media, Mu1 plus DC-Chol/DOPE vs DC-Chol/DOPE alone): increased the number of positive cells
- increased efficiency by inclusion of Mu1 ([3]; differentiated by cAMP alone): greater than 6 fold
- increased efficiency by inclusion of Mu1 ([3]; differentiated by serum withdrawal): greater than 10 fold
- increased efficiency by inclusion of Mu1 ([3]; low serum/cAMP/NGF): greater than 6 fold
